Assays:
windgrass [1] = assay: Test Example 5: herbicidal effect by foliage application, plastic box (Table 20, symbol L); assay type: in vivo, windgrass (Apera spica-venti); conditions: foliage application, evaluated three weeks after application
Method in brief: (§1)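 Sow seeds spot-wise in sterilized diluvial soil; cover with ~1.5 cm soil. Grow 14 days in greenhouse, 25° C. to 30° C. Spray foliage with emulsion diluted to predetermined amount. Rate effect after 3 weeks.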

chickweed [2] = assay: Test Example 5: herbicidal effect by foliage application, plastic box (Table 20, symbol P); assay type: in vivo, common chickweed (Stellaria media); conditions: foliage application, evaluated three weeks after application
Method in brief: as §1

redroot pigweed [3] = assay: Test Example 5: herbicidal effect by foliage application, plastic box (Table 20, symbol N); assay type: in vivo, redroot pigweed (Amaranthus retroflexus); conditions: foliage application, evaluated three weeks after application
Method in brief: as §1

southern crabgrass [4] = assay: Test Example 4: herbicidal effect by soil treatment (Table 19, symbol F); assay type: in vivo, southern crabgrass (Digitaria ciliaris); conditions: amount of applied herbicide 320 g/ha
Method in brief: (§2)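 Soil-surface application: an emulsion agent diluted with water to the predetermined dose is sprayed uniformly over seeds lying under roughly 1.5 cm of sterilized diluvial soil. Boxes stay in a greenhouse at 25° C. to 30° C. Three weeks later, each species is graded on previously defined criteria.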

barnyard grass [5] = assay: Test Example 4: herbicidal effect by soil treatment (Table 19, symbol H); assay type: in vivo, barnyard grass (Echinochloa crus-galli); conditions: amount of applied herbicide 320 g/ha
Method in brief: as §2

chickweed [6] = assay: Test Example 4: herbicidal effect by soil treatment (Table 19, symbol P); assay type: in vivo, common chickweed (Stellaria media); conditions: amount of applied herbicide 320 g/ha
Method in brief: as §2

velvetleaf [7] = assay: Test Example 5: herbicidal effect by foliage application, plastic box (Table 20, symbol M); assay type: in vivo, velvetleaf (Abutilon theophrasti); conditions: foliage application, evaluated three weeks after application
Method in brief: as §1

wild oat [8] = assay: Test Example 5: herbicidal effect by foliage application, plastic box (Table 20, symbol I); assay type: in vivo, wild oat (Avena fatua); conditions: foliage application, evaluated three weeks after application
Method in brief: as §1

barnyard grass [9] = assay: Test Example 5: herbicidal effect by foliage application, plastic box (Table 20, symbol H); assay type: in vivo, barnyard grass (Echinochloa crus-galli); conditions: foliage application, evaluated three weeks after application
Method in brief: as §1

barnyard grass [10] = assay: Test Example 3: herbicidal effect by foliage application, Wagner pot (Table 18, symbol H); assay type: in vivo, barnyard grass (Echinochloa crus-galli); conditions: amount of applied herbicide 320 g/ha
Method in brief: (§3)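 Plants were sown in alluvial soil held under 0.1–0.5 cm standing water and grown 14 days in a greenhouse at 25–30 °C. An emulsifiable formulation, water-diluted to the set dose, was then sprayed onto the foliage, and effects were scored three weeks later using previously defined criteria.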

green foxtail [11] = assay: Test Example 5: herbicidal effect by foliage application, plastic box (Table 20, symbol G); assay type: in vivo, green foxtail (Setaria viridis); conditions: foliage application, evaluated three weeks after application
Method in brief: as §1

lambsquarters [12] = assay: Test Example 5: herbicidal effect by foliage application, plastic box (Table 20, symbol O); assay type: in vivo, lambsquarters (Chenopodium album); conditions: foliage application, evaluated three weeks after application
Method in brief: as §1

windgrass [13] = assay: Test Example 4: herbicidal effect by soil treatment (Table 19, symbol L); assay type: in vivo, windgrass (Apera spica-venti); conditions: amount of applied herbicide 320 g/ha
Method in brief: as §2

wild oat [14] = assay: Test Example 4: herbicidal effect by soil treatment (Table 19, symbol I); assay type: in vivo, wild oat (Avena fatua); conditions: amount of applied herbicide 320 g/ha
Method in brief: as §2

redroot pigweed [15] = assay: Test Example 4: herbicidal effect by soil treatment (Table 19, symbol N); assay type: in vivo, redroot pigweed (Amaranthus retroflexus); conditions: amount of applied herbicide 320 g/ha
Method in brief: as §2

Chinese sprangletop = assay: Test Example 3: herbicidal effect by foliage application, Wagner pot (Table 18, symbol D); assay type: in vivo, chinese sprangletop (Leptochloa chinensis); conditions: amount of applied herbicide 320 g/ha
Method in brief: as §3

Italian ryegrass [16] = assay: Test Example 4: herbicidal effect by soil treatment (Table 19, symbol K); assay type: in vivo, Italian ryegrass (Lolium multiflorum); conditions: amount of applied herbicide 320 g/ha
Method in brief: as §2

persian speedwell [17] = assay: Test Example 5: herbicidal effect by foliage application, plastic box (Table 20, symbol R); assay type: in vivo, Persian speedwell (Veronica persica); conditions: foliage application, evaluated three weeks after application
Method in brief: as §1

Italian ryegrass [18] = assay: Test Example 5: herbicidal effect by foliage application, plastic box (Table 20, symbol K); assay type: in vivo, Italian ryegrass (Lolium multiflorum); conditions: foliage application, evaluated three weeks after application
Method in brief: as §1

oval-leafed pondweed = assay: Test Example 1: herbicidal activity, application before weed generation under submerged conditions (Table 16, symbol C); assay type: in vivo, oval-leafed pondweed (Monochoria vaginalis); conditions: 320 g/ha applied herbicide
Method in brief: (§4)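 Submerged Wagner pots (alluvial soil, 4 cm water) sown with weed seeds and planted with 2.5-leaf rice seedlings; emulsifiable concentrate diluted in water applied to water surface on sowing day. Held in greenhouse at 25-30 °C; injury scored 0-5 by herbicidal rate after three weeks.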

Japanese bulrush = assay: Test Example 1: herbicidal activity, application before weed generation under submerged conditions (Table 16, symbol B); assay type: in vivo, Japanese bulrush (Schoenoplectus juncoides); conditions: 320 g/ha applied herbicide
Method in brief: as §4

velvetleaf [19] = assay: Test Example 4: herbicidal effect by soil treatment (Table 19, symbol M); assay type: in vivo, velvetleaf (Abutilon theophrasti); conditions: amount of applied herbicide 320 g/ha
Method in brief: as §2

southern crabgrass [20] = assay: Test Example 5: herbicidal effect by foliage application, plastic box (Table 20, symbol F); assay type: in vivo, southern crabgrass (Digitaria ciliaris); conditions: foliage application, evaluated three weeks after application
Method in brief: as §1

blackgrass [21] = assay: Test Example 4: herbicidal effect by soil treatment (Table 19, symbol J); assay type: in vivo, blackgrass (Alopecurus myosuroides); conditions: amount of applied herbicide 320 g/ha
Method in brief: as §2

green foxtail [22] = assay: Test Example 4: herbicidal effect by soil treatment (Table 19, symbol G); assay type: in vivo, green foxtail (Setaria viridis); conditions: amount of applied herbicide 320 g/ha
Method in brief: as §2

blackgrass [23] = assay: Test Example 5: herbicidal effect by foliage application, plastic box (Table 20, symbol J); assay type: in vivo, blackgrass (Alopecurus myosuroides); conditions: foliage application, evaluated three weeks after application
Method in brief: as §1

persian speedwell [24] = assay: Test Example 4: herbicidal effect by soil treatment (Table 19, symbol R); assay type: in vivo, Persian speedwell (Veronica persica); conditions: amount of applied herbicide 320 g/ha
Method in brief: as §2

lambsquarters [25] = assay: Test Example 4: herbicidal effect by soil treatment (Table 19, symbol O); assay type: in vivo, lambsquarters (Chenopodium album); conditions: amount of applied herbicide 320 g/ha
Method in brief: as §2

late watergrass = assay: Test Example 1: herbicidal activity, application before weed generation under submerged conditions (Table 16, symbol A); assay type: in vivo, late watergrass (Echinochloa oryzicola); conditions: 320 g/ha applied herbicide
Method in brief: as §4

rice flat sedge = assay: Test Example 3: herbicidal effect by foliage application, Wagner pot (Table 18, symbol E); assay type: in vivo, rice flat sedge (Cyperus iria); conditions: amount of applied herbicide 320 g/ha
Method in brief: as §3

SMILES	herbicidal effect on F: southern crabgrass (southern crabgrass [4])	herbicidal effect on H: barnyard grass (barnyard grass [5])	herbicidal effect on P: chickweed (chickweed [6])	herbicidal effect on H: barnyard grass (barnyard grass [10])	herbicidal effect on L: windgrass (windgrass [13])	herbicidal effect on I: wild oat (wild oat [14])	herbicidal effect on N: redroot pigweed (redroot pigweed [15])	herbicidal effect on D: Chinese sprangletop (Chinese sprangletop)	herbicidal effect on K: Italian ryegrass (Italian ryegrass [16])	Herbicidal effect on C: oval-leafed pondweed (grade 0-5) (oval-leafed pondweed)	Herbicidal effect on B: Japanese bulrush (grade 0-5) (Japanese bulrush)	herbicidal effect on M: velvetleaf (velvetleaf [19])	herbicidal effect on J: blackgrass (blackgrass [21])	herbicidal effect on G: green foxtail (green foxtail [22])	herbicidal effect on R: persian speedwell (persian speedwell [24])	herbicidal effect on O: lambsquarters (lambsquarters [25])	Herbicidal effect on A: late watergrass (grade 0-5) (late watergrass)	herbicidal effect on E: rice flat sedge (rice flat sedge)	further results
CCCSc1cccc(-c2sc3ccc(F)cc3c2-c2c(O)c(C)nn(C)c2=O)c1 [2-246]	0 (Herbicidal rate of 5% or less (almost no effect))	0 (Herbicidal rate of 5% or less (almost no effect))	3 (Herbicidal rate of 40% or more and less than 70%)	3 (Herbicidal rate of 40% or more and less than 70%)	0 (Herbicidal rate of 5% or less (almost no effect))	0 (Herbicidal rate of 5% or less (almost no effect))	0 (Herbicidal rate of 5% or less (almost no effect))	0 (Herbicidal rate of 5% or less (almost no effect))	0 (Herbicidal rate of 5% or less (almost no effect))	0 (Herbicidal rate of 5% or less (almost no effect))	0 (Herbicidal rate of 5% or less (almost no effect))	0 (Herbicidal rate of 5% or less (almost no effect))	0 (Herbicidal rate of 5% or less (almost no effect))	0 (Herbicidal rate of 5% or less (almost no effect))	5 (Herbicidal rate of 90% or more (almost completely withered))	0 (Herbicidal rate of 5% or less (almost no effect))	2 (Herbicidal rate of 20% or more and less than 40%)	3 (Herbicidal rate of 40% or more and less than 70%)	herbicidal effect on L: windgrass (criteria 0-5) (windgrass [1]; 320 g/ha): 3 (Herbicidal rate of 40% or more and less than 70%); herbicidal effect on P: chickweed (criteria 0-5) (chickweed [2]; 320 g/ha): 5 (Herbicidal rate of 90% or more (almost completely withered)); herbicidal effect on N: redroot pigweed (criteria 0-5) (redroot pigweed [3]; 320 g/ha): 3 (Herbicidal rate of 40% or more and less than 70%); herbicidal effect on M: velvetleaf (criteria 0-5) (velvetleaf [7]; 320 g/ha): 3 (Herbicidal rate of 40% or more and less than 70%); herbicidal effect on I: wild oat (criteria 0-5) (wild oat [8]; 320 g/ha): 4 (Herbicidal rate of 70% or more and less than 90%); herbicidal effect on H: barnyard grass (criteria 0-5) (barnyard grass [9]; 320 g/ha): 0 (Herbicidal rate of 5% or less (almost no effect)); herbicidal effect on G: green foxtail (criteria 0-5) (green foxtail [11]; 320 g/ha): 0 (Herbicidal rate of 5% or less (almost no effect)); herbicidal effect on O: lambsquarters (criteria 0-5) (lambsquarters [12]; 320 g/ha): 0 (Herbicidal rate of 5% or less (almost no effect)); herbicidal effect on R: persian speedwell (criteria 0-5) (persian speedwell [17]; 320 g/ha): 5 (Herbicidal rate of 90% or more (almost completely withered)); herbicidal effect on K: Italian ryegrass (criteria 0-5) (Italian ryegrass [18]; 320 g/ha): 2 (Herbicidal rate of 20% or more and less than 40%); herbicidal effect on F: southern crabgrass (criteria 0-5) (southern crabgrass [20]; 320 g/ha): 0 (Herbicidal rate of 5% or less (almost no effect)); herbicidal effect on J: blackgrass (criteria 0-5) (blackgrass [23]; 320 g/ha): 1 (Herbicidal rate of 5% or more and less than 20%)
CC(=O)COc1cccc(-c2sc3ccc(F)cc3c2-c2c(O)c(C)nn(C)c2=O)c1 [2-275]	5 (Herbicidal rate of 90% or more (almost completely withered))	3 (Herbicidal rate of 40% or more and less than 70%)	0 (Herbicidal rate of 5% or less (almost no effect))	3 (Herbicidal rate of 40% or more and less than 70%)	0 (Herbicidal rate of 5% or less (almost no effect))	0 (Herbicidal rate of 5% or less (almost no effect))	4 (Herbicidal rate of 70% or more and less than 90%)	0 (Herbicidal rate of 5% or less (almost no effect))	0 (Herbicidal rate of 5% or less (almost no effect))	3 (Herbicidal rate of 40% or more and less than 70%)	3 (Herbicidal rate of 40% or more and less than 70%)	1 (Herbicidal rate of 5% or more and less than 20%)	0 (Herbicidal rate of 5% or less (almost no effect))	4 (Herbicidal rate of 70% or more and less than 90%)	3 (Herbicidal rate of 40% or more and less than 70%)	2 (Herbicidal rate of 20% or more and less than 40%)	3 (Herbicidal rate of 40% or more and less than 70%)	0 (Herbicidal rate of 5% or less (almost no effect))	L: windgrass, herbicidal effect (criteria 0-5) (windgrass [1]; AAH 320 g/ha): 0 (Herbicidal rate of 5% or less (almost no effect)); P: chickweed, herbicidal effect (criteria 0-5) (chickweed [2]; AAH 320 g/ha): 5 (Herbicidal rate of 90% or more (almost completely withered)); N: redroot pigweed, herbicidal effect (criteria 0-5) (redroot pigweed [3]; AAH 320 g/ha): 4 (Herbicidal rate of 70% or more and less than 90%); M: velvetleaf, herbicidal effect (criteria 0-5) (velvetleaf [7]; AAH 320 g/ha): 3 (Herbicidal rate of 40% or more and less than 70%); I: wild oat, herbicidal effect (criteria 0-5) (wild oat [8]; AAH 320 g/ha): 0 (Herbicidal rate of 5% or less (almost no effect)); H: barnyard grass, herbicidal effect (criteria 0-5) (barnyard grass [9]; AAH 320 g/ha): 3 (Herbicidal rate of 40% or more and less than 70%); G: green foxtail, herbicidal effect (criteria 0-5) (green foxtail [11]; AAH 320 g/ha): 4 (Herbicidal rate of 70% or more and less than 90%); O: lambsquarters, herbicidal effect (criteria 0-5) (lambsquarters [12]; AAH 320 g/ha): 2 (Herbicidal rate of 20% or more and less than 40%); R: persian speedwell, herbicidal effect (criteria 0-5) (persian speedwell [17]; AAH 320 g/ha): 5 (Herbicidal rate of 90% or more (almost completely withered)); K: Italian ryegrass, herbicidal effect (criteria 0-5) (Italian ryegrass [18]; AAH 320 g/ha): 0 (Herbicidal rate of 5% or less (almost no effect)); F: southern crabgrass, herbicidal effect (criteria 0-5) (southern crabgrass [20]; AAH 320 g/ha): 5 (Herbicidal rate of 90% or more (almost completely withered)); J: blackgrass, herbicidal effect (criteria 0-5) (blackgrass [23]; AAH 320 g/ha): 0 (Herbicidal rate of 5% or less (almost no effect))

Reference: US20230085307A1, “PYRIDAZINONE COMPOUND AND HERBICIDE” (NISSAN CHEMICAL CORPORATION, priority 2019, published 2023)
